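The compound was tested at five concentrations on cells cultured in 96-well plates, with a 48-hour exposure period. TGI: concentration producing complete growth inhibition.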
Columns and labels:
Assay in all cases: NCI-60 cell line screen, 48 h
SK-MEL-28 melanoma = test system: SK-MEL-28 melanoma
MALME-3M melanoma = test system: MALME-3M melanoma
HCC-2998 colon = test system: HCC-2998 colon
SK-MEL-2 melanoma = test system: SK-MEL-2 melanoma
KM12 colon = test system: KM12 colon
NCI/ADR-RES ovarian = test system: NCI/ADR-RES ovarian
IGROV1 ovarian = test system: IGROV1 ovarian
RXF 393 renal = test system: RXF 393 renal
SF-295 CNS = test system: SF-295 CNS
A549 NSCLC = test system: A549 NSCLC
SN12C renal = test system: SN12C renal
COLO 205 colon = test system: COLO 205 colon
EKVX NSCLC = test system: EKVX NSCLC
CAKI-1 renal = test system: CAKI-1 renal
UO-31 renal = test system: UO-31 renal
SNB-75 CNS = test system: SNB-75 CNS
HCT-15 colon = test system: HCT-15 colon
SF-268 CNS = test system: SF-268 CNS
UACC-62 melanoma = test system: UACC-62 melanoma
NCI-H522 lung = test system: NCI-H522 lung
SK-MEL-5 melanoma = test system: SK-MEL-5 melanoma
CCRF-CEM leukemia = test system: CCRF-CEM leukemia
MCF7 breast = test system: MCF7 breast
SNB-19 CNS = test system: SNB-19 CNS
HL-60(TB) leukemia = test system: HL-60(TB) leukemia
HS 578T breast = test system: HS 578T breast
OVCAR-5 ovarian = test system: OVCAR-5 ovarian
SR leukemia = test system: SR leukemia
NCI-H460 lung = test system: NCI-H460 lung
K-562 leukemia = test system: K-562 leukemia
RPMI-8226 leukemia = test system: RPMI-8226 leukemia
A498 renal = test system: A498 renal
UACC-257 melanoma = test system: UACC-257 melanoma
T-47D breast = test system: T-47D breast
DU-145 prostate = test system: DU-145 prostate
OVCAR-4 ovarian = test system: OVCAR-4 ovarian
U251 CNS = test system: U251 CNS
MDA-MB-435 = test system: MDA-MB-435
MDA-N = test system: MDA-N
SW-620 colon = test system: SW-620 colon
LOX IMVI melanoma = test system: LOX IMVI melanoma
OVCAR-3 ovarian = test system: OVCAR-3 ovarian
NCI-H23 lung = test system: NCI-H23 lung
M14 melanoma = test system: M14 melanoma
HT29 colon = test system: HT29 colon
MDA-MB-231 breast = test system: MDA-MB-231 breast
BT-549 breast = test system: BT-549 breast
HOP-62 NSCLC = test system: HOP-62 NSCLC
HCT-116 colon = test system: HCT-116 colon
NCI-H226 lung = test system: NCI-H226 lung
PC-3 prostate = test system: PC-3 prostate
SF-539 CNS = test system: SF-539 CNS
SK-OV-3 ovarian = test system: SK-OV-3 ovarian
TK-10 renal = test system: TK-10 renal
HOP-92 NSCLC = test system: HOP-92 NSCLC
OVCAR-8 ovarian = test system: OVCAR-8 ovarian
786-0 renal = test system: 786-0 renal
MOLT-4 leukemia = test system: MOLT-4 leukemia
ACHN renal = test system: ACHN renal

`O=C(O)C(Cc1c[nH]c2ccccc12)C(=O)NO` (stereo not drawn) gave a TGI (SK-MEL-28 melanoma) greater than 100 µM, a TGI (MALME-3M melanoma) greater than 100 µM and a TGI (HCC-2998 colon) greater than 100 µM. The TGI (SK-MEL-2 melanoma) was greater than 100 µM, the TGI (KM12 colon) was greater than 100 µM and the TGI (NCI/ADR-RES ovarian) was greater than 100 µM. The TGI (IGROV1 ovarian) was greater than 100 µM, the TGI (RXF 393 renal) was greater than 100 µM and the TGI (SF-295 CNS) was greater than 100 µM. The TGI (A549 NSCLC) was greater than 100 µM, the TGI (SN12C renal) was greater than 100 µM and the TGI (COLO 205 colon) was greater than 100 µM. It also gave a TGI (EKVX NSCLC) greater than 100 µM, a TGI (CAKI-1 renal) greater than 100 µM and a TGI (UO-31 renal) greater than 100 µM. For the same compound, the TGI (SNB-75 CNS) was greater than 100 µM, the TGI (HCT-15 colon) was greater than 100 µM and the TGI (SF-268 CNS) was greater than 100 µM. It also gave a TGI (UACC-62 melanoma) greater than 100 µM, a TGI (NCI-H522 lung) greater than 100 µM and a TGI (SK-MEL-5 melanoma) greater than 100 µM. It also gave a TGI (CCRF-CEM leukemia) greater than 100 µM, a TGI (MCF7 breast) greater than 100 µM and a TGI (SNB-19 CNS) greater than 100 µM. It also gave a TGI (HL-60(TB) leukemia) greater than 100 µM, a TGI (HS 578T breast) greater than 100 µM and a TGI (OVCAR-5 ovarian) greater than 100 µM. The TGI (SR leukemia) was greater than 100 µM, the TGI (NCI-H460 lung) was greater than 100 µM and the TGI (K-562 leukemia) was greater than 100 µM. For the same compound, the TGI (RPMI-8226 leukemia) was greater than 100 µM, the TGI (A498 renal) was greater than 100 µM and the TGI (UACC-257 melanoma) was greater than 100 µM. It also gave a TGI (T-47D breast) greater than 100 µM, a TGI (DU-145 prostate) greater than 100 µM and a TGI (OVCAR-4 ovarian) greater than 100 µM. For the same compound, the TGI (U251 CNS) was greater than 100 µM, the TGI (MDA-MB-435) was greater than 100 µM and the TGI (MDA-N) was greater than 100 µM. It also gave a TGI (SW-620 colon) greater than 100 µM, a TGI (LOX IMVI melanoma) greater than 100 µM and a TGI (OVCAR-3 ovarian) greater than 100 µM. The TGI (NCI-H23 lung) was greater than 100 µM, the TGI (M14 melanoma) was greater than 100 µM and the TGI (HT29 colon) was greater than 100 µM. For the same compound, the TGI (MDA-MB-231 breast) was greater than 100 µM, the TGI (BT-549 breast) was greater than 100 µM and the TGI (HOP-62 NSCLC) was greater than 100 µM. The TGI (HCT-116 colon) was greater than 100 µM, the TGI (NCI-H226 lung) was greater than 100 µM and the TGI (PC-3 prostate) was greater than 100 µM. For the same compound, the TGI (SF-539 CNS) was greater than 100 µM, the TGI (SK-OV-3 ovarian) was greater than 100 µM and the TGI (TK-10 renal) was greater than 100 µM. The TGI (HOP-92 NSCLC) was greater than 100 µM, the TGI (OVCAR-8 ovarian) was greater than 100 µM and the TGI (786-0 renal) was greater than 100 µM. For the same compound, the TGI (MOLT-4 leukemia) was greater than 100 µM and the TGI (ACHN renal) was greater than 100 µM.
For `CC(C)[Si]1(C(C)C)OCC2OC(N3C(=O)NC(=O)C[C@@H]3C(O)c3ccccc3)CC2O[Si](C(C)C)(C(C)C)O1` (stereo partly drawn), the TGI (SK-MEL-28 melanoma) was 12.9 µM, the TGI (MALME-3M melanoma) was 12.8 µM and the TGI (HCC-2998 colon) was 4.46 µM. It also gave a TGI (SK-MEL-2 melanoma) of 27.3 µM, a TGI (KM12 colon) of 7.1 µM and a TGI (NCI/ADR-RES ovarian) of 13.4 µM. It also gave a TGI (IGROV1 ovarian) of 17.6 µM, a TGI (RXF 393 renal) of 13.4 µM and a TGI (SF-295 CNS) of 9.97 µM. It also gave a TGI (A549 NSCLC) of 24.1 µM, a TGI (SN12C renal) of 12.2 µM and a TGI (COLO 205 colon) of 25.8 µM. For the same compound, the TGI (EKVX NSCLC) was 23.4 µM, the TGI (CAKI-1 renal) was 30.7 µM and the TGI (UO-31 renal) was 24.8 µM. It also gave a TGI (SNB-75 CNS) of 17.6 µM, a TGI (HCT-15 colon) of 18.1 µM and a TGI (SF-268 CNS) of 10.6 µM. For the same compound, the TGI (UACC-62 melanoma) was 22.4 µM, the TGI (NCI-H522 lung) was 7.77 µM and the TGI (SK-MEL-5 melanoma) was 26.3 µM. It also gave a TGI (CCRF-CEM leukemia) of 8.46 µM, a TGI (MCF7 breast) of 15.2 µM and a TGI (SNB-19 CNS) of 25.4 µM. For the same compound, the TGI (HL-60(TB) leukemia) was 21.6 µM, the TGI (HS 578T breast) was 8.71 µM and the TGI (OVCAR-5 ovarian) was 27.6 µM. It also gave a TGI (SR leukemia) greater than 19.8 µM, a TGI (NCI-H460 lung) of 34.3 µM and a TGI (K-562 leukemia) greater than 30.2 µM. It also gave a TGI (RPMI-8226 leukemia) of 12.2 µM, a TGI (A498 renal) of 17.7 µM and a TGI (UACC-257 melanoma) of 16.5 µM. The TGI (T-47D breast) was 14.7 µM, the TGI (DU-145 prostate) was 26.5 µM and the TGI (OVCAR-4 ovarian) was 14.8 µM. It also gave a TGI (U251 CNS) of 9.06 µM, a TGI (MDA-MB-435) of 18.2 µM and a TGI (MDA-N) of 9.61 µM. The TGI (SW-620 colon) was 9 µM, the TGI (LOX IMVI melanoma) was 10.7 µM and the TGI (OVCAR-3 ovarian) was 11.4 µM. It also gave a TGI (NCI-H23 lung) of 21.6 µM, a TGI (M14 melanoma) of 30.1 µM and a TGI (HT29 colon) of 6.59 µM. The TGI (MDA-MB-231 breast) was 12.1 µM, the TGI (BT-549 breast) was 33.4 µM and the TGI (HOP-62 NSCLC) was 27.5 µM. It also gave a TGI (HCT-116 colon) of 9.79 µM, a TGI (NCI-H226 lung) of 8.9 µM and a TGI (PC-3 prostate) of 15.3 µM. For the same compound, the TGI (SF-539 CNS) was 32.4 µM, the TGI (SK-OV-3 ovarian) was 11.8 µM and the TGI (TK-10 renal) was 24 µM. For the same compound, the TGI (HOP-92 NSCLC) was 20.4 µM, the TGI (OVCAR-8 ovarian) was 17.3 µM and the TGI (786-0 renal) was 12.5 µM. The TGI (MOLT-4 leukemia) was 9.31 µM and the TGI (ACHN renal) was 19.7 µM.
